Counter-ions that a name gives are not always drawn.

By IC50 is commonly meant the point on the concentration scale where inhibition reaches its midpoint. Low values mean greater potency in that assay, high ones weaker potency in that assay.

In the assay the target is TrkA (Homo sapiens (Human), UniProt P04629). The assay is described as follows: TrkA Omnia Assay. In kind it is biochemical. The note with it: averaged IC50; 20 nM enzyme, 500 μM ATP, 10 μM peptide substrate. The method, boiled down:
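Continuous fluorescent kinase read-out (ex 360 nm, em 485 nm) over 70 min, with initial rates fitted to 4- or 5-parameter logistic curves for IC50. Final conditions: 500 μM ATP, 10 μM Omnia Tyr Peptide #4, 20 nM TrkA, MOPS pH 7.5 buffer with MgCl2 and Triton X-100; enzyme and compound preincubated 10 min at ambient temperature.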

TrkA, sequence (P04629 33-796): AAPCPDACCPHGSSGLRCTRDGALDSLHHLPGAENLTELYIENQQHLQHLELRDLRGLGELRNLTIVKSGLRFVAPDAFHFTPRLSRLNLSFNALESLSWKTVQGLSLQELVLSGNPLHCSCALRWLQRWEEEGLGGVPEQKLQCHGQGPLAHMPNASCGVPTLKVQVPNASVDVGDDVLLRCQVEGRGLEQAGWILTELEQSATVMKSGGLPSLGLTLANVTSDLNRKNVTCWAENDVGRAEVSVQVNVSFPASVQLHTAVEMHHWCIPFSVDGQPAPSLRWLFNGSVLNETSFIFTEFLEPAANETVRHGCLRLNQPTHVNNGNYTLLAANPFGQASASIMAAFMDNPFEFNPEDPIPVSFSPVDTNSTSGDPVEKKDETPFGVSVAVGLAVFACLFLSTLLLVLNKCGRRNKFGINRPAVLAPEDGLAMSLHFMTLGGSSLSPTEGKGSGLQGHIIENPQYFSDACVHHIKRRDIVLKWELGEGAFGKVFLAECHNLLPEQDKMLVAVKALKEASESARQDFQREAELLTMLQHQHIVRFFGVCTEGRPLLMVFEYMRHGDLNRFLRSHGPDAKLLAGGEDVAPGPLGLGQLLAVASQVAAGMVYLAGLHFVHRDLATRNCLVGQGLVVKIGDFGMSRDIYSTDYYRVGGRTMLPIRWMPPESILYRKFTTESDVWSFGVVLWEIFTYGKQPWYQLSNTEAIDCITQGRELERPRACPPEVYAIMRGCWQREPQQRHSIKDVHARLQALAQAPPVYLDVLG

Take `COCCN1C[C@@H](NC(=O)Nc2c(C#N)c(CC#N)nn2-c2ccccc2)[C@H](c2ccc(F)c(F)c2)C1` [Example 70, 1-(4-cyano-3-(cyano-methyl)-1-phenyl-1H-pyrazol-5-yl)-3-((3S,4R)-4-(3,4-difluorophenyl)-1-(2-methoxyethyl)pyrrolidin-3-yl)urea]: the half-inhibitory concentration (IC50) is < 100 nM. `CCOc1nn(-c2ccccc2)c(NC(=O)N[C@@H]2CN(c3ccc(F)cc3)C[C@H]2c2ccccc2)c1C` [Example 235, 1-(3-ethoxy-4-methyl-1-phenyl-1H-pyrazol-5-yl)-3-((3S,4R)-1-(4-fluorophenyl)-4-phenylpyrrolidin-3-yl)urea] gave an IC50 of 100 to 1000 nM.

As for `COc1ncccc1N1C[C@@H](NC(=O)Nc2c(Br)c(-c3ccccc3)nn2-c2ccccc2)[C@H](c2ccccc2)C1` [Example 247, 1-(4-bromo-1,3-diphenyl-1H-pyrazol-5-yl)-3-((3S,4R)-1-(2-methoxypyridin-3-yl)-4-phenylpyrrolidin-3-yl)urea], the IC50 lay in the range of 100 to 1000 nM. `CCOc1nn(-c2ccccc2)c(NC(=O)N[C@@H]2CN(c3c[nH]nc3C(F)(F)F)C[C@H]2c2ccc(F)c(F)c2)c1C` [Example 220, 1-((3S,4R)-4-(3,4-difluorophenyl)-1-(3-(trifluoromethyl)-1H-pyrazol-4-yl)pyrrolidin-3-yl)-3-(3-ethoxy-4-methyl-1-phenyl-1H-pyrazol-5-yl)urea]: the IC50 lay within 100 to 1000 nM. Consider `CCOc1nn(-c2ccccc2)c(NC(=O)N[C@@H]2CN(c3cccnc3OC)C[C@H]2c2ccccc2)c1C` [Example 242, 1-(3-ethoxy-4-methyl-1-phenyl-1H-pyrazol-5-yl)-3-((3S,4R)-1-(2-methoxypyridin-3-yl)-4-phenylpyrrolidin-3-yl)urea], for which the IC50 was < 100 nM. Take `COCCN1C[C@@H](NC(=O)Nc2c(Cl)c([C@@H]3CCCN3)nn2-c2ccccc2)[C@H](c2ccc(F)c(F)c2)C1` [Example 587, 1-((3S,4R)-4-(3,4-difluorophenyl)-1-(2-methoxyethyl)pyrrolidin-3-yl)-3-(4-chloro-1-phenyl-3-((S)-pyrrolidin-2-yl)-1H-pyrazol-5-yl)urea dihydrochloride]: the IC50 is < 100 nM. For `COCCN1C[C@@H](NC(=O)Nc2c(C)c(-c3cnn(C)n3)nn2-c2ccccc2)[C@H](c2cccc(F)c2)C1` [Example 384, 1-((3S,4R)-4-(3-fluorophenyl)-1-(2-methoxyethyl)pyrrolidin-3-yl)-3-(4-methyl-3-(2-methyl-2H-1,2,3-triazol-4-yl)-1-phenyl-1H-pyrazol-5-yl)urea] the value was < 100 nM; for `COCCN1C[C@@H](NC(=O)Nc2c(C)c(OC[C@@H]3COC(C)(C)O3)nn2-c2ccccc2)[C@H](c2ccc(F)c(F)c2)C1` [Example 77, 1-((3S,4R)-4-(3,4-difluorophenyl)-1-(2-methoxyethyl)pyrrolidin-3-yl)-3-(3-(((R)-2,2-dimethyl-1,3-dioxolan-4-yl)methoxy)-4-methyl-1-phenyl-1H-pyrazol-5-yl)urea], < 100 nM; for `COCCN1C[C@@H](NC(=O)Nc2c(C)c(OC[C@H](O)CO)nn2-c2ccccc2)[C@H](c2cc(F)c(F)c(F)c2)C1` [Example 559, 1-(3-((R)-2,3-dihydroxvpropoxy)-4-methyl-1-phenyl-1H-pyrazol-5-yl)-3-((3S,4R)-1-(2-methoxyethyl)-4-(3,4,5-trifluorophenyl)pyrrolidin-3-yl)urea], < 100 nM.

With `O=C(Nc1c2c(nn1-c1ccccc1)CCC2)N[C@@H]1CN(Cc2csnn2)C[C@H]1c1ccc(F)c(F)c1` [Example 248, 1-((3S,4R)-1-((1,2,3-thiadiazol-4-yl)methyl)-4-(3,4-difluorophenyl)pyrrolidin-3-yl)-3-(2-phenyl-2,4,5,6-tetrahydrocyclopenta[c]pyrazol-3-yl)urea], the IC50 was < 100 nM.

Regarding `Cc1nn(-c2ccccc2)c(NC(=O)N[C@@H]2CN(c3cn[nH]c3)C[C@H]2c2cc(F)cc(F)c2)c1C` [Example 223, 1-((3S,4R)-4-(3,5-difluoro-phenyl)-1-(1H-pyrazol-4-yl)pyrrolidin-3-yl)-3-(3,4-dimethyl-1-phenyl-1H-pyrazol-5-yl)urea], the IC50 was < 100 nM. For `COCCN1C[C@@H](NC(=O)Nc2c(Cl)c(-c3cnn(C)c3)nn2-c2ccccc2)[C@H](c2cc(F)cc(F)c2)C1` [Example 422, 1-(4-chloro-1′-methyl-1-phenyl-1H,1′H-[3,4′-bipyrazol]-5-yl)-3-((3S,4R)-4-(3,5-difluorophenyl)-1-(2-methoxyethyl)pyrrolidin-3-yl)urea] the value was < 100 nM; for `N#CCN1C[C@@H](NC(=O)Nc2c3c(nn2-c2ccccc2)CCC3)[C@H](c2ccc(F)c(F)c2)C1` [Example 186, 1-((3S,4R)-1-(cyanomethyl)-4-(3,4-difluorophenyl)pyrrolidin-3-yl)-3-(2-phenyl-2,4,5,6-tetrahydrocyclopenta[c]pyrazol-3-yl)urea], < 100 nM. For `COCCN1C[C@@H](NC(=O)Nc2c(Cl)c(C3CCOCC3)nn2-c2ccccc2)[C@H](c2ccc(F)cc2)C1` [Example 570, 1-(4-chloro-1-phenyl-3-(tetrahydro-2H-pyran-4-yl)-1H-pyrazol-5-yl)-3-((3S,4R)-4-(4-fluorophenyl)-1-(2-methoxyethyl)pyrrolidin-3-yl)urea], the IC50 is < 100 nM. For `COCCN1C[C@@H](NC(=O)Nc2cc(C(C)C)nn2-c2ccccc2)[C@H](c2ccc(F)c(F)c2)C1` (relative stereo) [Example 4, trans-1-(4-(3,4-difluorophenyl)-1-(2-methoxyethyl)pyrrolidin-3-yl)-3-(3-isopropyl-1-phenyl-1H-pyrazol-5-yl) urea] the value was < 100 nM. For `CCOC(=O)c1nn(-c2ccccc2)c(NC(=O)N[C@@H]2CN(CCOC)C[C@H]2c2ccc(F)c(F)c2)c1Br` [Example 381, ethyl 4-bromo-5-(3-((3S,4R)-4-(3,4-difluorophenyl)-1-(2-methoxyethyl)pyrrolidin-3-yl)ureido)-1-phenyl-1H-pyrazole-3-carboxylate] the value was < 100 nM; for `COCCN1C[C@@H](NC(=O)Nc2c(C)c(C(=O)N(C)C)nn2-c2ccccc2)[C@H](c2ccc(F)c(F)c2)C1` [Example 460, 5-(3-((3S,4R)-4-(3,4-difluorophenyl)-1-(2-methoxyethyl)pyrrolidin-3-yl)ureido)-N,N,4-trimethyl-1-phenyl-1H-pyrazole-3-carboxamide], < 100 nM; for `COCCN1C[C@@H](NC(=O)Nc2c3c(nn2-c2ccccc2)CCC3)[C@H](c2ccncc2)C1` (relative stereo) [Example 38, 1-(trans-1-(2-methoxyethyl)-4-(pyridin-4-yl)pyrrolidin-3-yl)-3-(2-phenyl-2,4,5,6-tetrahydrocyclopenta[c]pyrazol-3-yl)urea], < 100 nM. `COCCN1C[C@@H](NC(=O)Nc2cc(-c3ccc(C)cc3)nn2C)[C@H](c2ccc(F)c(F)c2)C1` [Example 102, 1-((3S,4R)-4-(3,4-difluorophenyl)-1-(2-methoxyethyl)pyrrolidin-3-yl)-3-(1-methyl-3-p-tolyl-1H-pyrazol-5-yl)urea]: the IC50 is < 100 nM. With `COCCN1C[C@@H](NC(=O)Nc2c(C)c(OC[C@@H](O)CO)nn2-c2ccccc2)[C@H](c2ccc(F)c(F)c2)C1` [Example 177, 1-((3S,4R)-4-(3,4-difluorophenyl)-1-(2-methoxyethyl)pyrrolidin-3-yl)-3-(3-((S)-2,3-dihydroxypropoxy)-4-methyl-1-phenyl-1H-pyrazol-5-yl)urea], the IC50 was < 100 nM.

For the molecule `COCCN1C[C@@H](NC(=O)Nc2c(C)c(C(F)(F)CO)nn2-c2ccccc2)[C@H](c2ccc(F)c(F)c2)C1` [Example 282, 1-(3-(1,1-difluoro-2-hydroxyethyl)-4-methyl-1-phenyl-1H-pyrazol-5-yl)-3-((3S,4R)-4-(3,4-difluorophenyl)-1-(2-methoxyethyl)pyrrolidin-3-yl)urea], the half-maximal inhibitory concentration (IC50) was < 100 nM. On to `COCCN1C[C@@H](NC(=O)Nc2c(C)c(-c3ccc(N)nc3)nn2-c2ccccc2)[C@H](c2ccc(F)c(F)c2)C1` [Example 515, 1-(3-(6-aminopyridin-3-yl)-4-methyl-1-phenyl-1H-pyrazol-5-yl)-3-((3S,4R)-4-(3,4-difluorophenyl)-1-(2-methoxyethyl)pyrrolidin-3-yl)urea], for which the IC50 is < 100 nM. `COCCN1C[C@@H](NC(=O)Nc2c(C)c(-c3cnn(C)c3)nn2-c2ccccc2)[C@H](c2cccc(Cl)c2)C1` (relative stereo) [Example 296, 1-(trans-4-(3-chlorophenyl)-1-(2-methoxyethyl)pyrrolidin-3-yl)-3-(1′,4-dimethyl-1-phenyl-1H,1′H-[3,4′-bipyrazol]-5-yl)urea]: the IC50 was < 100 nM. To `COCCN1C[C@@H](NC(=O)Nc2c(C)c(OCC(=O)O)nn2-c2ccccc2)[C@H](c2ccc(F)c(F)c2)C1` [Example 540, 2-((5-(3-((3S,4R)-4-(3,4-difluorophenyl)-1-(2-methoxyethyl)pyrrolidin-3-yl)ureido)-4-methyl-1-phenyl-1H-pyrazol-3-yl)oxy)acetic acid] belongs < 100 nM. In the case of `COCCN1C[C@@H](NC(=O)Nc2c(C)c(C(C)(C)CO)nn2-c2ccccc2)[C@H](c2ccccc2)C1` [Example 117, 1-(3-(1-hydroxy-2-methylpropan-2-yl)-4-methyl-1-phenyl-1H-pyrazol-5-yl)-3-((3S,4R)-1-(2-methoxyethyl)-4-phenylpyrrolidin-3-yl) urea], the IC50 was < 100 nM. For “1-((3S,4R)-4-(3,4- fluorophenyl)-1-(2- methoxyethyl)pyrrolidin-3-yl)- 3-(1-(3-chlorophenyl)-1′,4- dimethyl-1H,1′H-[3,4′- bipyrazol]-5-yl)urea [Example 321]” the value was < 100 nM; for `COC[C@@H](N1C[C@@H](NC(=O)Nc2c(C)c(OC[C@H](C)O)nn2-c2ccccc2)[C@H](c2ccc(F)c(F)c2)C1)C(F)(F)F` [Example 279, 1-((3S,4R)-4-(3,4-difluorophenyl)-1-((R)-1,1,1-trifluoro-3-methoxypropan-2-yl)pyrrolidin-3-yl)-3-(3-((S)-2-hydroxypropoxy)-4-methyl-1-phenyl-1H-pyrazol-5-yl)urea], 100 to 1000 nM.
